Data as given in paper PMC7466261, “In Silico and In Vitro Analysis of Multifunctionality of Animal Food-Derived Peptides” (Foods, 2020).
Where two headings read alike, the source gives them in different places. Where a SMILES comes first, the peptide text is derived from it. Where no end group is shown, it is not given here.

Assays:
[1] = target: T1, angiotensin-converting enzyme (ACE) (Oryctolagus cuniculus, UniProt P12822); details: read-out: ACE inhibitory IC50, cited from earlier work
T1 sequence (P12822 34-1310): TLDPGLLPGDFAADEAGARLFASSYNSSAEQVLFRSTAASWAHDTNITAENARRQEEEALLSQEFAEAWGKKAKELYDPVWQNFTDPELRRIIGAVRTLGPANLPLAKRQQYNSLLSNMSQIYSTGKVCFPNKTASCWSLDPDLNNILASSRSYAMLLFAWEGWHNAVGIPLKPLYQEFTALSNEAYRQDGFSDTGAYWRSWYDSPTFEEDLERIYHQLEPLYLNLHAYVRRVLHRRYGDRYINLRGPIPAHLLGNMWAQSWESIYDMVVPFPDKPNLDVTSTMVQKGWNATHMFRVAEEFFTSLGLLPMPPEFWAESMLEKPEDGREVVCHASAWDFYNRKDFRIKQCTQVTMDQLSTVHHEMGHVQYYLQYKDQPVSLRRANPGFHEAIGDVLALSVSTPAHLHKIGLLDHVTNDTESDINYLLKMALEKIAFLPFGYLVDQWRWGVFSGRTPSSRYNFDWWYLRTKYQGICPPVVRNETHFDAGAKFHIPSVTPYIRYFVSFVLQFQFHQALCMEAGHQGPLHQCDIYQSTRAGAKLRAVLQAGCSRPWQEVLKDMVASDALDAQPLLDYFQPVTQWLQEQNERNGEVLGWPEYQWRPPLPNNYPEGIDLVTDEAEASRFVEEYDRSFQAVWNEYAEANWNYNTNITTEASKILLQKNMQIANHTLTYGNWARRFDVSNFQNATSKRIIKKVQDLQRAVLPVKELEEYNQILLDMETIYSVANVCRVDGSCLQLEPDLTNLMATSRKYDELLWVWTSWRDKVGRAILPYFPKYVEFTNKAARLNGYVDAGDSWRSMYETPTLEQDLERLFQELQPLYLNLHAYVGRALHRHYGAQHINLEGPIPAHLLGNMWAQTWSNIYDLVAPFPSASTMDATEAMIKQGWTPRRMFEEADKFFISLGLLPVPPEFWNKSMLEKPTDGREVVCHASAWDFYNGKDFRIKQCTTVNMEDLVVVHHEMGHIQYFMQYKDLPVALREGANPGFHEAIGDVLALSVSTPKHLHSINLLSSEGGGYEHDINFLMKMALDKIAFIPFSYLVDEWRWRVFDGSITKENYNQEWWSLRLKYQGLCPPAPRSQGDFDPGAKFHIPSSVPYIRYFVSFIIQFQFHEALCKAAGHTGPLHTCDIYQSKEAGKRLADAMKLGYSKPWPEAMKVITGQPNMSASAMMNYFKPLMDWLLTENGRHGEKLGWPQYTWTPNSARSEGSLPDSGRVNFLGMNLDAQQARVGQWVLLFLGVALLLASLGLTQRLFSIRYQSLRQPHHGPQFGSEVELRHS

[2] = target: T1, angiotensin-converting enzyme (ACE); test: ACE-inhibitory activity, fluorescence assay with Abz-Gly-Phe(NO2)-Pro; type: biochemical
Procedure: ACE (1 U/mL) was diluted (0.04 U/mL) in 150 mM Tris buffer containing 0.1 μM ZnCl2 (pH 8.3). Forty microliters of sample (or MilliQ water for blank and control) were added to a black multi-well plate (Porvair, Leatherhead, UK). Then, 40 μL of ACE were added, and the reaction started after the addition of 160 μL of the substrate. The plate was incubated at 37 °C for 30 min, and the fluorescence was measured in a FLUOstar OPTIMA plate reader (BMG Labtechnologies GmbH, Offenburg, Germany) with 320 nm excitation and 420 nm emission filters.

[3] = Oxygen radical absorbance capacity (ORAC)-FL assay; set-up: key to Antioxidant Activity ORAC, symbol: **: Antioxidant activity not detected at the highest peptide concentration analyzed (0.20 µmol); details: for Antioxidant Activity ORAC: mean ± SD
Procedure: An oxygen radical absorbance capacity (ORAC)-FL assay was used based on the protocol previously optimized. The reaction was performed at 37 °C in 75 mM phosphate buffer (pH 7.4). The final assay mixture volume was 200 µL, containing 70 nM FL, 12 mM AAPH, and antioxidant [(Trolox, 1–8 µM) or sample (at different concentrations)]. Fluorescence was measured during 137 min in a FLUOstar OPTIMA plate reader (BMG Labtech) with 485 nm excitation and 520 nm emission filters. The equipment was controlled by the FLUOstar Control ver. 1.32 R2 software for fluorescence measurement. Samples were analyzed in triplicate. The final ORAC-FL value was expressed as μmol Trolox equivalents (TE) per μmol peptide.

ABTS assay (TEAC) = details: mean ± SD
Procedure: Antioxidant activity was measured using a previously optimized method with some modifications. A mixture of 7 mM ABTS stock solution and 2.45 mM potassium persulfate was kept in the dark at room temperature for 12-16 h to form the ABTS radical cation (ABTS^•+). The ABTS^•+ solution was diluted in 5 mM of phosphate buffer solution (PBS) (pH 7.4) to an absorbance of 0.70 ± 0.02 at 734 nm at 30 °C. Two mL of diluted ABTS^•+ solution were mixed with 20 μL of sample or Trolox (0–0.015 μmol), and the absorbance was recorded at 734 nm after 10 min incubation at 30 °C. The Trolox equivalent antioxidant capacity (TEAC) value was expressed as μmol TE per μmol peptide. Each sample was analyzed in triplicate.

[4] = MBPDB; cited from earlier work
Caco-2 cells [5] = test: Cell viability (MTT), direct effects, Caco-2; type: cell-based, human; details: Caco-2, 1–100 µM, 24 h
Procedure: (§1) Cell viability was determined using the MTT assay. […] Samples were analyzed in triplicate.

RAW264.7 cells = test: Cell viability (MTT), direct effects, RAW264.7; type: cell-based, mouse; details: RAW264.7, 1–100 µM, 24 h
Procedure: as §1

[6] = target: opioid, (3H)-naloxone binding; details: database value; read-out: Opioid agonist IC50, inhibition of (3H)-naloxone binding; cited from earlier work
Caco-2 cells [7] = test: Intracellular ROS (DCFH), t-BOOH-stressed Caco-2; type: cell-based, human; details: stressed Caco-2 (1 mM t-BOOH)
Procedure: The intracellular ROS levels were detected using the ROS-sensitive fluorescent dye, DCFH, as previously described. Caco-2 cells were plated in 48-well plates (density of 4.75 × 10^4 cells/well) and RAW264.7 cells in 24-well plates (density of 2.0 × 10^5 cells/well) and incubated for 7 days and 14 h, respectively. After this time, cells were treated with peptides as previously described for 24 h. Then, DCFH was dissolved in HBSS and added to cells at a final concentration of 5 µM solution. Cells were incubated for 30 min at 37 °C. The probe was removed, and cells were incubated with PBS (direct effects) or t-BOOH (protective effects) for 60 min, measuring the fluorescence after 60 min in a FLUOstar OPTIMA plate reader (BMG Labtech) with 485 nm excitation and 520 nm emission filters. The results were expressed as percentage of the control, which was considered as 100%. The assay was run in triplicate.

[8] = mean ± SD, read-out: ACE Inhibitory Activity (IC50-µM)
[9] = highest peptide concentration analyzed 1000 µM, read-out: ACE Inhibitory Activity (IC50-µM), symbol

HLPLP [reference compound]
IC50 ([1]; literature value): 41 µM

YPFVEP [YPFVEP]
IC50 [2, 8]: 7.48 ± 0.03 µM

CC(C)C[C@H](NC(=O)[C@@H](N)Cc1ccc(O)cc1)C(=O)NCC(=O)O [YLG] (H-Tyr-Leu-Gly-OH; N-terminus and C-terminus assumed)
IC50 [2, 9]: > 1000 µM | Antioxidant Activity ORAC [3]: 0.93 ± 0.08 µmol TE/µmol peptide | Antioxidant Activity TEAC (ABTS assay (TEAC)): 1.40 ± 0.04 µmol TE/µmol peptide | ORAC [4]: ORAC = 1.38 µmol TE/µmol peptide **

FYPEL [FYPEL]
IC50 [2, 8]: 62 ± 6.27 µM | IC50 ([1]; database value): 80.6 µM

VPP [reference compound]
IC50 ([1]; literature value): 9 µM

RYLGYLE [RYLGYLE]
IC50 [2, 9]: > 1000 µM | Cell viability, direct effect (Caco-2 cells [5]): did not evoke changes in cell viability | Cell viability, direct effect (RAW264.7 cells): did not evoke changes in cell viability

CC(C)C[C@H](NC(=O)CNC(=O)[C@@H](N)Cc1ccc(O)cc1)C(=O)N[C@@H](Cc1ccccc1)C(=O)O [YGLF] (H-YGLF-OH; N-terminus and C-terminus assumed)
IC50 [2, 9]: > 1000 µM | Antioxidant Activity ORAC [3]: 0.89 ± 0.01 µmol TE/µmol peptide | Antioxidant Activity TEAC (ABTS assay (TEAC)): 2.08 ± 0.06 µmol TE/µmol peptide | IC50 ([1]; BIOPEP-UWM): 733 µM | IC50 [6]: 300 µM

CC(C)C[C@H](NC(=O)[C@H](Cc1ccc(O)cc1)NC(=O)[C@@H](N)CCCNC(=N)N)C(=O)NCC(=O)O [RYLG] (H-RYLG-OH; N-terminus and C-terminus assumed)
IC50 [2, 9]: > 1000 µM | Antioxidant Activity ORAC [3]: 1.70 ± 0.11 µmol TE/µmol peptide | Antioxidant Activity TEAC (ABTS assay (TEAC)): 2.91 ± 0.21 µmol TE/µmol peptide | IC50 ([1]; database value): 225 µM | ORAC [4]: ORAC = 1.67 µmol TE/µmol peptide **

CC(C)C[C@H](NC(=O)[C@@H](N)CC(C)C)C(=O)N[C@@H](Cc1ccccc1)C(=O)O [LLF] (H-Leu-Leu-Phe-OH; N-terminus and C-terminus assumed)
IC50 [2, 8]: 94.8 ± 2.97 µM | Antioxidant Activity ORAC, symbol ([3]; highest peptide concentration analyzed 0.20 µmol): ** | IC50 ([1]; BIOPEP-UWM): 79.8 µM

CC(C)C[C@H](NC(=O)[C@H](Cc1ccccc1)NC(=O)CNC(=O)[C@@H](N)Cc1ccc(O)cc1)C(=O)O [YGFL]
IC50 [2, 8]: 292.5 ± 0.83 µM | Antioxidant Activity ORAC [3]: 1.42 ± 0.04 µmol TE/µmol peptide | Antioxidant Activity TEAC (ABTS assay (TEAC)): 2.12 ± 0.03 µmol TE/µmol peptide

YFYPEL [YFYPEL]
IC50 [2, 8]: 8.82 ± 0.58 µM | Cell viability, direct effect (Caco-2 cells [5]): did not evoke changes in cell viability | Cell viability, direct effect (RAW264.7 cells): did not evoke changes in cell viability | ROS levels (% control) (Caco-2 cells [7]; 1 µM peptide): 168.88 ± 17.80%

CC(C)C[C@H](NC(=O)[C@H](Cc1ccc(O)cc1)NC(=O)[C@@H](N)CCCNC(=N)N)C(=O)O [RYL] (H-Arg-Tyr-Leu-OH; N-terminus and C-terminus assumed)
IC50 [2, 9]: > 1000 µM | Antioxidant Activity ORAC [3]: 1.72 ± 0.14 µmol TE/µmol peptide | Antioxidant Activity TEAC (ABTS assay (TEAC)): 1.90 ± 0.03 µmol TE/µmol peptide | IC50 ([1]; BIOPEP-UWM): 3.31 µM | IC50 ([1]; database value): 107 µM | ORAC [4]: ORAC = 1.75 µmol TE/µmol peptide **

CC(C)C[C@H](N)C(=O)NCC(=O)N[C@@H](Cc1ccc(O)cc1)C(=O)O [LGY] (H-Leu-Gly-Tyr-OH; N-terminus and C-terminus assumed)
IC50 [2, 8]: 26.1 ± 0.83 µM | Antioxidant Activity ORAC [3]: 2.00 ± 0.09 µmol TE/µmol peptide | Antioxidant Activity TEAC (ABTS assay (TEAC)): 1.54 ± 0.01 µmol TE/µmol peptide | IC50 ([1]; database value): 21.5 µM | ORAC [4]: ORAC = 2.31 µmol TE/µmol peptide **

CC(C)C[C@H](NC(=O)[C@@H](N)Cc1ccc(O)cc1)C(=O)NCC(=O)N[C@@H](Cc1ccc(O)cc1)C(=O)O [YLGY] (H-YLGY-OH; N-terminus and C-terminus assumed)
IC50 [2, 8]: 9.87 ± 0.31 µM | Antioxidant Activity ORAC [3]: 2.96 ± 0.20 µmol TE/µmol peptide | Antioxidant Activity TEAC (ABTS assay (TEAC)): 2.14 ± 0.11 µmol TE/µmol peptide | IC50 ([1]; database value): 41.9 µM | ORAC [4]: ORAC = 1.46 µmol TE/µmol peptide **

YPFVE [YPFVE]
IC50 [2, 9]: > 1000 µM

N[C@@H](Cc1ccc(O)cc1)C(=O)N1CCC[C@H]1C(=O)N[C@@H](Cc1c[nH]c2ccccc12)C(=O)O [YPW] (H-Tyr-Pro-Trp-OH; N-terminus and C-terminus assumed)
IC50 [2, 9]: > 1000 µM

YLGYLE [YLGYLE]
IC50 [2, 8]: 85.8 ± 4.66 µM | Cell viability, direct effect (Caco-2 cells [5]): did not evoke changes in cell viability | Cell viability, direct effect (RAW264.7 cells): did not evoke changes in cell viability | ROS levels (% control) (Caco-2 cells [7]; 1 µM peptide): 175.06 ± 11.13% | ROS levels (% control) (Caco-2 cells [7]; 10 µM peptide): 174.44 ± 11.60%

AYFYPE [AYFYPE]
IC50 [2, 8]: 774 ± 38.2 µM | IC50 ([1]; BIOPEP-UWM and MBPDB): 106 µM | IC50 ([1]; database value): 261 µM

IPP [reference compound]
IC50 ([1]; literature value): 5 µM

YPFPGPI [YPFPGPI]
IC50 [2, 8]: 686 ± 103 µM | IC50 ([1]; MBPDB): 500 µM

RYLGY [RYLGY]
IC50 [2, 8]: 3.08 ± 0.11 µM

YGFLP [YGFLP]
IC50 [2, 8]: 272.39 ± 0.25 µM | IC50 ([1]; literature value): 260 µM

YPVEPF [YPVEPF]
IC50 [2, 9]: > 1000 µM

YPFPGPIP
IC50 [2, 8]: 224 ± 43.9 µM
